Measurements published in ChEMBL document CHEMBL1201862, “PubChem BioAssay data set” (2004).
Calls of active or inactive are those of the source.

Experiments:
[1] = biological target: Cytochrome P450 2C19 (Homo sapiens, UniProt P33261); assay: Cytochrome panel assay with activity outcomes. Panel member name: p450-cyp2c19 Compounds with AC50 equal or less than 10 uM are considered active; assay type: functional; details: read-out: AC50
[2] = biological target: Cytochrome P450 2D6 (Homo sapiens, UniProt P10635);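 also: CYP2D6 member of a cytochrome P450 panel assay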
[3] = biological target: Cytochrome P450 2C9 (Homo sapiens, UniProt P11712)
[4] = biological target: T1, Heat shock factor protein 1 (Mus musculus, UniProt P38532); assay: decrease of HSF1-responsive luciferase luminescence – cell-based, NIH3T3, dose retest, confirmation (AID 2382); assay type: functional;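 also: NIH3T3 fibroblasts with HSF1-driven luciferase reporter stressed by proteasome inhibitor MG132; luminescence from HSF1-driven luciferase expression after 8 hours of MG132 stress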
T1 sequence (P38532 whole entry): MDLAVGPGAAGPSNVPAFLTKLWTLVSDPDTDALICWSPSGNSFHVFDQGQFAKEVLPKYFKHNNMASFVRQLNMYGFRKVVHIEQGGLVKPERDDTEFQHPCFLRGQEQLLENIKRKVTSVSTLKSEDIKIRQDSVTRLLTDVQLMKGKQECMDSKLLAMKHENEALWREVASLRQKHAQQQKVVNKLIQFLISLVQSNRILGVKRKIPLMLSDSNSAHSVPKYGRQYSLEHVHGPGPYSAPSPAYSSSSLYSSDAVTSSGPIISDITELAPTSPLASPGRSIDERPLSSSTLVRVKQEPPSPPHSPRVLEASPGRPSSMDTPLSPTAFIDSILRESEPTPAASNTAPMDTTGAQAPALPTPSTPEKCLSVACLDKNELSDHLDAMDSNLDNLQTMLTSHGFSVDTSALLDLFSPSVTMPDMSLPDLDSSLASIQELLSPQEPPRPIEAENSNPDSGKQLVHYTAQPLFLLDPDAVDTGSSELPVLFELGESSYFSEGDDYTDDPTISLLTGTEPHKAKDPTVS

[5] = reduction of Shn3 3'UTR-driven luciferase in osteoblasts – cell-based, Clone20 osteoblasts, firefly luciferase, cherry-picked, dose response (AID 624132); assay type: functional;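 also: firefly luciferase luminescence from reporter carrying the Shn3 3'UTR in osteoblasts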
[6] = A549 cell cytotoxicity, dose response, cytotoxicity control, plate reader, cherry-pick, antagonist series (AID 743412); assay type: functional, cell-based
[7] = toxicity toward HepG2 liver cells – cell-based, plate reader, cherry-pick, antagonist series, cytotoxicity control, dose response (AID 743416); assay type: functional
[8] = blockers of bursicon-stimulated LGR2 cAMP reporter – cell-based, HEK293, CRE-luciferase reporter, cherry pick, set 2, dose response (AID 743343); assay type: functional;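 also: transfected cells were stimulated with diluted bursicon conditioned medium after compound addition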
[9] = blockade of melanocortin 4 receptor signaling – cell-based, plate reader, cherry pick, counter-screen for LGR2 antagonist project, dose response (AID 743444); assay type: functional;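 also: transfected HEK 293 cells stimulated with alpha-MSH peptide; potency of inhibitors of the alpha-MSH evoked signal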
[10] = viability loss in HEK293 cells – cell-based, plate reader, cherry-picked samples, cytotoxicity control, dose response (AID 743446); assay type: functional
[11] = tested on: BJ; assay: BJ-TERT fibroblast viability loss – cell-based, RAS-independent, luminescence, dose response (AID 1933); assay type: functional; details: Homo sapiens
[12] = tested on: BJ; assay: cells; assay type: functional, cell-based; details: Homo sapiens
[13] = tested on: BJ; assay: BJ-TERT-LT-ST fibroblast viability loss – cell-based, RAS-independent, luminescence, dose response (AID 1935); assay type: functional; details: Homo sapiens;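 also: BJ fibroblasts immortalized with TERT plus LT and ST oncogenes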
[14] = DRD fibroblast viability loss – cell-based, non-viral oncogenic, luminescence, dose response (AID 1934); assay type: functional; details: Homo sapiens
[15] = tested on: Vero; assay: cells; assay type: functional, cell-based; details: Chlorocebus sabaeus
[16] = biological target: T2, Corticotropin-releasing factor receptor 2/Corticotropin-releasing factor-binding protein (Homo sapiens, UniProt P24387+Q13324); assay: Dose Response confirmation of uHTS hits for small molecule antagonists of the CRF-binding protein and CRF-R2 receptor complex.; assay type: functional; details: read-out: IC50_Mean
T2 sequence (Q13324 whole entry): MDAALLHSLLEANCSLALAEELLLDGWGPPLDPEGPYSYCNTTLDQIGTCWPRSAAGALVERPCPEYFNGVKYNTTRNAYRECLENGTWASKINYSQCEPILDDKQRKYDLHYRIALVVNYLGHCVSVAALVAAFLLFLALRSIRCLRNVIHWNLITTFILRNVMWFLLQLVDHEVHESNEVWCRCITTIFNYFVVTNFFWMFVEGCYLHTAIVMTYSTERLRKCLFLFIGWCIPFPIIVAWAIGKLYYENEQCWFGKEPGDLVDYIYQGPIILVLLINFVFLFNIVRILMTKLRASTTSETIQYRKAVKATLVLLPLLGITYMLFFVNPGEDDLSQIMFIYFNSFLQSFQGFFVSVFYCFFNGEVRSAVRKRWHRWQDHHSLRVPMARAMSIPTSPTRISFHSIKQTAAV
T2 sequence (P24387 whole entry): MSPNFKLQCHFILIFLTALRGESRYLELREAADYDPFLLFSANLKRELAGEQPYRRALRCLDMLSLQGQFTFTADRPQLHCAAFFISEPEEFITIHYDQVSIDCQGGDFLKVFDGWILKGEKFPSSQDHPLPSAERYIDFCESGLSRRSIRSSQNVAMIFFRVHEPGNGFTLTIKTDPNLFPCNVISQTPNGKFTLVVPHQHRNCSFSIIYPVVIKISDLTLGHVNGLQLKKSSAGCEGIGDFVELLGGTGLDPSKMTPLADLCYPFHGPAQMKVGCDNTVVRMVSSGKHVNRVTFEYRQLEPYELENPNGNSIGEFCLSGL

[17] = biological target: T2, Corticotropin-releasing factor receptor 2/Corticotropin-releasing factor-binding protein; assay: activators of CRF receptor 2 with binding protein – uHTS hits, confirmation (AID 602473); assay type: functional; details: read-out: EC50_Mean
[18] = blockers of CRF-binding protein–CRF-R2 complex – cell-based, uHTS hits, 384-well, dose response (AID 651639); assay type: functional, Homo sapiens; details: read-out: IC50_Mean
[19] = biological target: T3, Caspase-6 (Homo sapiens, UniProt P55212); assay: inhibition of CASP6 peptide cleavage – biochemical, VEID-R110 fluorescence, cherry-pick, dose response (AID 720632)
T3 sequence (P55212 whole entry): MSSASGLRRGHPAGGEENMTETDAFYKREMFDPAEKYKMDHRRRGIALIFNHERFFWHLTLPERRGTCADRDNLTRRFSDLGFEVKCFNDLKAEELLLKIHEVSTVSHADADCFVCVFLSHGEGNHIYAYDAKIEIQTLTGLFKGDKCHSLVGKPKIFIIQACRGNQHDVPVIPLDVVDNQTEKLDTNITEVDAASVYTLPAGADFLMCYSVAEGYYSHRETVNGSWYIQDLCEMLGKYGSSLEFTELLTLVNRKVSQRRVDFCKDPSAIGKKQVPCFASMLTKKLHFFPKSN

[20] = tested on: Vero; assay: cells; assay type: functional; details: Chlorocebus sabaeus
[21] = biological target: T4, Interleukin-8 (Homo sapiens, UniProt P10145); assay: Dose Response confirmation of uHTS small molecule hits for cystic fibrosis induced NFkb Inhibitors in a PAF-induced IL8 counterscreen.; assay type: functional; details: read-out: IC50_Mean
T4 sequence (P10145 whole entry): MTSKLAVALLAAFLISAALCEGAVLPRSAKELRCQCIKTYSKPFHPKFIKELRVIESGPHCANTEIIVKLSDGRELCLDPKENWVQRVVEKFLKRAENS

[22] = biological target: Cytochrome P450 3A4 (Homo sapiens, UniProt P08684);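 also: CYP3A4 tested as one member of a cytochrome P450 panel screen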
[23] = biological target: Nuclear receptor subfamily 5 group A member 2 (Homo sapiens, UniProt O00482); assay type: functional, cell-based;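 also: HEK293T cells transfected with LRH-1 and a StAR promoter luciferase reporter; potency for inhibitors that lower LRH-1 driven reporter light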
[24] = biological target: Steroidogenic factor 1 (Homo sapiens, UniProt Q13285); assay: Counterscreen for inverse agonists of the liver receptor homolog-1 (LRH-1; NR5A2): Luminescence-based cell-based high throughput dose response assay to identify inverse agonists of the Steroidogenic Factor 1 Nuclear Receptor (SF1; NR5A1).; assay type: functional
[25] = nonselective StAR promoter luciferase inhibitors – cell-based, luminescence, luciferase reporter, counter-screen for LRH-1 inverse agonist project, dose response (AID 651969); assay type: functional

Sequence of Cytochrome P450 2D6 (P10635 whole entry): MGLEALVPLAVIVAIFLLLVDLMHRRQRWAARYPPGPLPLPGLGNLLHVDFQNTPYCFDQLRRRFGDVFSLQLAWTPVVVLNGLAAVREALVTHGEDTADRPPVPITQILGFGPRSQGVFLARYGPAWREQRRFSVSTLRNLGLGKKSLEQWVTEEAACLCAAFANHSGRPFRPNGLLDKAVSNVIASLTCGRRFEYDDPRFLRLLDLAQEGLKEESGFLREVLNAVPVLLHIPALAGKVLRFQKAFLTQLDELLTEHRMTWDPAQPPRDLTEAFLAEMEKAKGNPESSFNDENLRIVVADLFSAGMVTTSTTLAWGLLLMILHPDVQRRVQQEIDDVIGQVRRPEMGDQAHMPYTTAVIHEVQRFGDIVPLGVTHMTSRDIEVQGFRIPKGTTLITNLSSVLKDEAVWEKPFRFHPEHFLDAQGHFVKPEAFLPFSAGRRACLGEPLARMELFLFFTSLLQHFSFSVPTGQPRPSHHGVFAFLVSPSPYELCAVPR
Sequence of Cytochrome P450 2C9 (P11712 whole entry): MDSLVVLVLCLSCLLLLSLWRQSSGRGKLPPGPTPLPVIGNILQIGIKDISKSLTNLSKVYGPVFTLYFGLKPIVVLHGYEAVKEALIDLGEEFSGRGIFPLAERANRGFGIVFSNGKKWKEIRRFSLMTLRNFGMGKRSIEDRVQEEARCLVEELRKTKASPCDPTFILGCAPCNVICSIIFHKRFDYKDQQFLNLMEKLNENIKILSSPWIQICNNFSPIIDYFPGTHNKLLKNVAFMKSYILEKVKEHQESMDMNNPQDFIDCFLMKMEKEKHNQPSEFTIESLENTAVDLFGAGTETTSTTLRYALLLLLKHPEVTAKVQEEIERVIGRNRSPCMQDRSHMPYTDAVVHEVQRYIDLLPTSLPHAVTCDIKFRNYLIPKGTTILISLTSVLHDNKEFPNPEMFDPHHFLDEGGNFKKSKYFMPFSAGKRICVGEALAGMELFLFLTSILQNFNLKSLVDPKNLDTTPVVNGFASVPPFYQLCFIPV
Sequence of Cytochrome P450 2C19 (P33261 whole entry): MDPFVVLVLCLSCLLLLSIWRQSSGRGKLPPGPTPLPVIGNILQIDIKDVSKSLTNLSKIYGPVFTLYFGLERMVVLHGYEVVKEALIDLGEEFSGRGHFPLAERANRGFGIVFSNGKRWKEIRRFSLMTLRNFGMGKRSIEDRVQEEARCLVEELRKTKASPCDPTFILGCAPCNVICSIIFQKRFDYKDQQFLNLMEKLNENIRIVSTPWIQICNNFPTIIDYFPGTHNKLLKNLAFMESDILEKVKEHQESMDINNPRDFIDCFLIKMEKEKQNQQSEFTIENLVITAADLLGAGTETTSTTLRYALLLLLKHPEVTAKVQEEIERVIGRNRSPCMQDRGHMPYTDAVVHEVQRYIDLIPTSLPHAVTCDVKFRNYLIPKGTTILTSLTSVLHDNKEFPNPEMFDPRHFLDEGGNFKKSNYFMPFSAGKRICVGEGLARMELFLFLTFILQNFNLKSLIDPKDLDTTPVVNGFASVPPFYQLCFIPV
Sequence of Cytochrome P450 3A4 (P08684 whole entry): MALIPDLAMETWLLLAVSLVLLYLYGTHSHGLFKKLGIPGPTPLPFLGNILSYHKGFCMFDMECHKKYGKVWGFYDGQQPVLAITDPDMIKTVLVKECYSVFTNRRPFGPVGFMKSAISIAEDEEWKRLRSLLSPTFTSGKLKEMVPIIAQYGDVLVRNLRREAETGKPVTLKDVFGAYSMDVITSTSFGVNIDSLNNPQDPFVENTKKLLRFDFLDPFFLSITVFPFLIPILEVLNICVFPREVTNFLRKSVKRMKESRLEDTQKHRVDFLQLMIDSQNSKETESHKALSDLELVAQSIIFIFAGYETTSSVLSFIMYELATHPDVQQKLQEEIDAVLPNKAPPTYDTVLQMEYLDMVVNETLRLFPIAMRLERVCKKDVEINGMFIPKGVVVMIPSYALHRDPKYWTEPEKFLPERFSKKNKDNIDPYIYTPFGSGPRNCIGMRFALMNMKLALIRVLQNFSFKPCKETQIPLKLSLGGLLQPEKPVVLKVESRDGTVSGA
Sequence of Nuclear receptor subfamily 5 group A member 2 (O00482 whole entry): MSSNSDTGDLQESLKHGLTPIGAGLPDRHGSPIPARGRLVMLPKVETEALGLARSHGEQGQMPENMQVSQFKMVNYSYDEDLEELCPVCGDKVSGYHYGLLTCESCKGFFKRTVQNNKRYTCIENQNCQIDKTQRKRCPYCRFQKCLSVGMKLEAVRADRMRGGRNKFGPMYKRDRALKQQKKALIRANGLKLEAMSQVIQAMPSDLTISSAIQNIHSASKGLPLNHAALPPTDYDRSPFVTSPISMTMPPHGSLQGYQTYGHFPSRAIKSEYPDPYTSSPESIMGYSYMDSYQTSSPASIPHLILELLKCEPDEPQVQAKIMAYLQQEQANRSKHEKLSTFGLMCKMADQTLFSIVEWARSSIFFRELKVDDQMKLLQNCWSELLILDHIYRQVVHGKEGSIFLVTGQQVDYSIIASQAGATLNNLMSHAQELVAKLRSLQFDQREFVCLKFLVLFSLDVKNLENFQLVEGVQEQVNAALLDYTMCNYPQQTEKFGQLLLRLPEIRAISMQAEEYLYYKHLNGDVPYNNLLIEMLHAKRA
Sequence of Steroidogenic factor 1 (Q13285 whole entry): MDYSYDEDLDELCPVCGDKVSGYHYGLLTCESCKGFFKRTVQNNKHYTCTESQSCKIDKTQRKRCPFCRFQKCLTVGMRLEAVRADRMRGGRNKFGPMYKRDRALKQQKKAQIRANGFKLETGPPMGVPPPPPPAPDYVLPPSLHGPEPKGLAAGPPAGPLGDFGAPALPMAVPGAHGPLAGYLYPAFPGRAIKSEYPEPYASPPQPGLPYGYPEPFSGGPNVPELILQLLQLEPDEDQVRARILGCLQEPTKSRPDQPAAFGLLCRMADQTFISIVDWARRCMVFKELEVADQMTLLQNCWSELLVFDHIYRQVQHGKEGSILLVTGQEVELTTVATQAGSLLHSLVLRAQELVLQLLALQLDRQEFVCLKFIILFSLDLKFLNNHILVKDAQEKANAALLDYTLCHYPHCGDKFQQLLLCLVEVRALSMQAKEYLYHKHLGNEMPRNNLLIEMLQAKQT

COc1ccccc1OCCCCCc1c(C)n[nH]c1C
AC50 [1]: 1.58 µM (inconclusive)
AC50 [2]: 11.2 µM (inconclusive)
AC50 [3]: inconclusive

COc1ccc(-c2nsc3c(N4CCCCC4C)ncnc23)cc1 (stereo unspecified)
EC50 [4]: < 160 nM (active)
AC50 [5]: < 260 nM (active)
AC50 [6]: > 52 µM (inactive)
AC50 [7]: > 52 µM (inactive)
AC50 [8]: 135 nM (active)
AC50 [9]: 134 nM (active)
AC50 [10]: > 52 µM (inactive)

COc1ccc2c(-c3cc4ccc(OCc5ccc(F)cc5)cc4oc3=O)cc(=O)oc2c1
EC50 [11]: 3.13 µM (active)
EC50 [12]: > 150 µM (not active)
EC50 [13]: 7.45 µM (inconclusive)
EC50 [14]: 8.57 µM (active)

O=C1C2CCCN2C(c2ccc(F)cc2)N1c1ccc(Cl)cc1 (stereo unspecified)
IC50 [15]: > 25 µM (active)

COc1ccc(Cl)cc1NC(=O)CN1C(=O)CSC1=O
AC50 [1]: 39.8 µM (inconclusive)
AC50 [2]: 5.62 µM (inconclusive)
AC50 [3]: inconclusive

Cc1[nH]c2nc(SCC(=O)c3cccc([N+](=O)[O-])c3)nc-2cc1Br
IC50 [16]: < 368 nM (active)
EC50 [17]: > 53 µM (inactive)
IC50 [18]: 6.28 µM (active)

COc1ccc(CCC(=O)Nc2ccc(S(=O)(=O)Nc3nccc(C)n3)cc2)cc1
AC50 [19]: 47.1 µM (active)

Cn1cc([N+](=O)[O-])c(C(=O)Nc2ccn(C34CC5CC(CC(C5)C3)C4)n2)n1
IC50 [15]: 24.3 µM (active)
CC50 [20]: > 25 µM (active)

CCc1cc(-c2n[nH]cc2-c2ccc(OC)cc2)c(O)cc1O
IC50 [21]: 6.31 µM (active)

O=C1c2ccccc2C(=O)N1Cc1cc(-c2ccccc2Cl)no1
AC50 [2]: 3.16 µM (inconclusive)
AC50 [22]: 39.8 µM (inconclusive)
AC50 [3]: inconclusive

COCCNc1ccc([N+](=O)[O-])cc1C(=O)NC1CCCc2ccccc21 (stereo unspecified)
IC50 [23]: 9.5 µM (active)
IC50 [24]: 5.53 µM (active)
IC50 [25]: 35.9 µM (inactive)
